Measurements: patent US6605628B1, “Method of using 5-(arysulfonyl)-, 5-(arylsulfanyl)-and 5-(arylsulfanyl)thiazolidine-2,4-diones for inhibition of farnesyl-protein transferase” (Wyeth Holdings Corporation, priority 2001, dated 2003)

Experiments:
FPTase [1] = molecular target: T1, FPTase (Homo sapiens, UniProt P49354+P49356); test: in vitro FTase Inhibition Assay, H-Ras used as substrate for farnesylation; format: biochemical; details: Table I, read-out: IC50 H-Ras*
Procedure: (§1) Enzyme test procedure: FPTase inhibition in vitro assay was performed according to James, G. L., Brown, M. S., and Goldstein, J. L., Methods in Enzymology, 1995, 255, 38-46; and Garcia, M. A., et al., J. Biol. Chem., 1993, 268, 18415-18420.
(§2) Materials—Purified FPTase (Moomaw, J. F. and Casey, P. J., J. Biol. Chem., 1992, 267, 17438-17443), purified His6-Ras, inhibitor compounds at 10 mg/ml or 10 mM in 100% DMSO, ^3H-FPP (50,000 dpm/pmol) Amersham, TCA/SDS (6%/2%), TCA (6%), Glass fiber filters ([…]), vacuum manifold or 96 well filtration plates.
(§3) Methods—1. Dilute FPTase inhibitors from stock solutions to 2.5× in 2.5% DMSO, 10 mM DTT, 0.5% octyl-B-glucoside. 2. Solution #1 is added to FPTase reaction in a volume of […]. 3. Standard reaction mix, […], contains 50 mM Tris (7.5), 10 mM ZnCl2, 3 mM MgCl2, 20 mM KCl, 5 mM DTT, 0.2% octyl-B-glucoside, 1% DMSO, […] His6-Ras, 10 ng FPTase, and various concentrations of FPTase inhibitors. 4. Incubate for 30-90 min at 25° C. 5. Stop reactions with TCA/SDS (6%/2%), hold at 4° C. for 45-60 min. 6. Filter by manifold or 96 well plate, wash filter 3-5× with TCA (6%). 7. Add scintillant to filters, measure ^3H-FPP incorporation into Ras protein.
(§4) Analysis of Results—Percent inhibition by test compounds is determined by the following:
(§5) (cpm from precipitated Ras with test compounds)−(background cpm)×100=% inhibition.
(§6) (cpm from precipitated Ras without test compounds)−(background cpm)

FPTase [2] = molecular target: T1, FPTase; test: in vitro FTase Inhibition Assay, K-Ras used as substrate for farnesylation; format: biochemical; details: Table I
Procedure: as §1, §2, §3, §4, §5, §6

| IC50 (FPTase [1]) | IC50 (FPTase [2]) | Structure (SMILES) |
| --- | --- | --- |
| 3.3 nM | 33 nM | COc1ccc(S(=O)(=O)C2(CCCC#Cc3cc(NC(=O)OC(C)(C)C)ccc3C)SC(=O)NC2=O)cc1 (single isomer, unassigned; less polar) [Example 222, Enantiomer of (3-{5-[5-(4-Methoxybenzenesulfonyl)-2,4-dioxothiazolidin-5-yl]pent-1-ynyl}-4-methylphenyl)carbamic Acid tert-Butyl Ester (Less Polar)] |
| 63 nM | > 1000 nM | COc1ccc(S(=O)(=O)C2(CCCC#Cc3cc(NC(=O)OC(C)(C)C)ccc3C)SC(=O)NC2=O)cc1 (single isomer, unassigned; more polar) [Example 223, Enantiomer of (3-{5-[5-(4-Methoxybenzenesulfonyl)-2,4-dioxothiazolidin-5-yl]pent-1-ynyl}-4-methylphenyl)carbamic Acid tert-Butyl Ester (More Polar)] |
| 75 to 150 nM | 3500 to 5500 nM | COc1ccc(S(=O)(=O)C2(CCCC#Cc3ccc(Cl)cc3)SC(=O)NC2=O)cc1 (stereo not shown) [Example 97, 5-[5-(4-Chlorophenyl)pent4-ynyl]-5-(4-methoxyphenylsulfonyl)-thiazolidine-2,4-dione] |
| 50 to 150 nM | 1500 to 1700 nM | O=C1NC(=O)C(CCCC#Cc2ccc(Cl)cc2)(S(=O)(=O)c2ccc(F)cc2)S1 (stereo not shown) [Example 105, 5-[5-(4-Chlorophenyl)pent-4-ynyl]-5-(4-fluorobenzenesulfonyl)thiazolidine-2,4-dione] |
| 65 to 130 nM | 1400 to 2100 nM | O=C1NC(=O)C(CCCC#Cc2ccc(Cl)cc2)(S(=O)(=O)c2cccc3cccnc23)S1 (stereo not shown) [Example 109, 5-[5-(4-Chlorophenyl)pent-4-ynyl]-5-(quinoline-8-sulfonyl)thiazolidine-2,4-dione] |
| 400 nM | 7000 nM | O=C1NC(=O)C(CCCC#Cc2ccc(Cl)cc2)(S(=O)(=O)c2ccc([N+](=O)[O-])cc2)S1 (stereo not shown) [Example 110, 5-[5-(4-Chlorophenyl)pent-4-ynyl]-5-(4-nitrobenzenesulfonyl)thiazolidine-2,4-dione] |
| 12 to 320 nM | 160 to 230 nM | O=C1NC(=O)C(CCCC#Cc2cc(Cl)ccc2Cl)(S(=O)(=O)c2ccc(I)cc2)S1 (stereo not shown) [Example 115, 5-[5-(2,5-Dichloro-phenyl)pent-4-ynyl]-5-(4-iodobenzenesulfonyl)-thiazolidine-2,4-dione] |
| 30 to 50 nM | 230 to 1000 nM | COc1ccc(S(=O)(=O)C2(CCCC#Cc3cc([N+](=O)[O-])ccc3C)SC(=O)NC2=O)cc1 (stereo not shown) [Example 122, 5-(4-Methoxybenzenesulfonyl)-5-[5-(2-methyl-5-nitrophenyl)pent-4-ynyl]thiazolidine-2,4-dione] |
| 80 to 82 nM | 1000 to 2800 nM | COc1ccc(S(=O)(=O)C2(CCCC#Cc3cc([N+](=O)[O-])ccc3OC)SC(=O)NC2=O)cc1 (stereo not shown) [Example 123, 5-(4-Methoxybenzenesulfonyl)-5-[5-(2-methoxy-5-nitrophenyl)pent-4-ynyl]thiazolidine-2,4-dione] |
| 23 to 56 nM | 320 to 1000 nM | COc1ccc(S(=O)(=O)C2(CCCC#Cc3ccc([N+](=O)[O-])cc3C)SC(=O)NC2=O)cc1 (stereo not shown) [Example 130, 5-(4-Methoxybenzenesulfonyl)-5-[5-(2-methyl-4-nitrophenyl)-pent-4-ynyl]-thiazolidine-2,4-dione] |
| 41 to 73 nM | 210 to 1000 nM | COc1ccc(S(=O)(=O)C2(CCCC#Cc3ccc([N+](=O)[O-])cc3OC)SC(=O)NC2=O)cc1 (stereo not shown) [Example 132, 5-(4-Methoxybenzenesulfonyl)-5-[5-(2-methoxy-4-nitrophenyl)pent-4-ynyl]thiazolidine-2,4-dione] |
| 40 to 200 nM | 54 to 1000 nM | COc1ccc(S(=O)(=O)C2(CCCC#Cc3cc(F)cc([N+](=O)[O-])c3)SC(=O)NC2=O)cc1 (stereo not shown) [Example 133, 5-[5-(3-Fluoro-5-nitrophenyl)pent-4-ynyl]-5-(4-methoxybenzenesulfonyl)-thiazolidine-2,4-dione] |
| 17 to 30 nM | 40 to 1000 nM | COc1ccc(S(=O)(=O)C2(CCCC#Cc3ccc(Cl)cc3C)SC(=O)NC2=O)cc1 (stereo not shown) [Example 142, 5-[5-(4-Chloro-2-methylphenyl)pent-4-ynyl]-5-(4-methoxybenzene-sulfonyl)-thiazolidine-2,4-dione] |
| 30 nM | 850 nM | COc1ccc(S(=O)(=O)C2(CCCC#Cc3ccc(Br)cc3C)SC(=O)NC2=O)cc1 (stereo not shown) [Example 143, 5-[5-(4-Bromo-2-methy-phenyl)pent-4-ynyl]-5-(4-methoxybenzene-sulfonyl)-thiazolidine-2,4-dione] |
| 1200 to 1700 nM | 5600 to 10000 nM | COc1ccc(S(=O)(=O)C2(CCCC#Cc3ccc(NC(=O)OC(C)(C)C)cc3)SC(=O)NC2=O)cc1 (stereo not shown) [Example 145, (4-{5-[5-(4-Methoxybenzensulfonyl)-2,4-dioxothiazolidin-5-yl)pent-1-ynyl}phenyl)carbamic Acid tert-Butyl Ester] |
| 6.8 to 210 nM | 80 to 100 nM | Cc1ccc(C(=O)NC(C)(C)C)cc1C#CCCCC1(S(=O)(=O)c2ccc(I)cc2)SC(=O)NC1=O (stereo not shown) [Example 147, N-tert-Butyl-3-{5-[5-(4-iodobenzenesulfonyl)-2,4-dioxothiazol-idin-5-yl]-pent-1-ynyl}-4-methyl-benzamide] |
| 450 to 500 nM | 1000 to 4900 nM | COc1ccc(S(=O)(=O)C2(CCCC#Cc3ccc(NC(=O)OC(C)(C)C)cc3C)SC(=O)NC2=O)cc1 (stereo not shown) [Example 149, (4-{5-[5-(4-Methoxybenzenesulfonyl)-2,4-dioxo-thiazolidin-5-yl)pent-1-ynyl}-3-methylphenyl)carbamic Acid tert-Butyl Ester] |
| 530 to 700 nM | 210 to 1000 nM | COc1ccc(S(=O)(=O)C2(CCCC#Cc3ccc(NC(=O)OC(C)(C)C)cc3C(F)(F)F)SC(=O)NC2=O)cc1 (stereo not shown) [Example 151, (4-{5-[5-(4-Methoxybenzenesulfonyl)-2,4-dioxothiazolidin-5-yl]pent-1-ynyl}-3-trifluoromethylphenyl)-carbamic Acid tert-Butyl Ester] |
| 200 nM | 3300 nM | COc1ccc(S(=O)(=O)C2(CC#Cc3ccc(-c4ccccc4)cc3)SC(=O)NC2=O)cc1 (stereo not shown) [Example 171, 5-(3-Biphenyl-4-yl-prop-2-ynyl)-5-(4-methoxybenzenesulfonyl)-thiazolidine-2,4-dione] |
| 10 to 32 nM | 53 to 520 nM | COc1ccc(S(=O)(=O)C2(CCCC#Cc3cc(NC(=O)OCc4ccccc4)ccc3C)SC(=O)NC2=O)cc1 (stereo not shown) [Example 175, (3-{5-[5-(4-Methoxybenzenesulfonyl)-2,4-dioxothiazolidin-5-yl]pent-1-ynyl}-4-methylphenyl)carbamic Acid Benzyl Ester] |
| 3.2 to 32 nM | 30 to 320 nM | COc1ccc(S(=O)(=O)C2(CCCC#Cc3cc(NC(=O)OCc4ccc([N+](=O)[O-])cc4)ccc3C)SC(=O)NC2=O)cc1 (stereo not shown) [Example 176, (3-{5-[5-(4-Methoxybenzenesulfonyl)-2,4-dioxothiazolidin-5-yl]pent-1-ynyl}-4-methylphenyl)carbamic Acid 4-Nitro- Benzyl Ester] |
| 17 to 32 nM | 10 nM | COC(=O)Nc1ccc(C)c(C#CCCCC2(S(=O)(=O)c3ccc(OC)cc3)SC(=O)NC2=O)c1 (stereo not shown) [Example 178, (3-{5-[5-(4-Methoxybenzenesulfonyl)-2,4-dioxothiazolidin-5-yl]pent-1-ynyl}-4-methylphenyl)carbamic Acid Methyl Ester] |
| 2 to 32 nM | 5 to 70 nM | COc1ccc(S(=O)(=O)C2(CCCC#Cc3cc(NC(=O)OC(C)C)ccc3C)SC(=O)NC2=O)cc1 (stereo not shown) [Example 179, (3-(5-[5-(4-Methoxybenzenesulfonyl)-2,4-dioxothiazolidin-5-yl]pent-1-ynyl}-4-methylphenyl)carbamic Acid Isopropyl Ester] |
| 2 to 32 nM | 7 to 90 nM | COc1ccc(S(=O)(=O)C2(CCCC#Cc3cc(NC(=O)OCC(C)(C)C)ccc3C)SC(=O)NC2=O)cc1 (stereo not shown) [Example 180, (3-(5-[5-(4-Methoxybenzenesulfonyl)-2,4-dixothiazolidin-5-yl]pent-1-ynyl}-4-methylphenyl)carbamic Acid Neopentyl Ester] |
| 10 to 32 nM | 100 to 130 nM | CCCCOC(=O)Nc1ccc(C)c(C#CCCCC2(S(=O)(=O)c3ccc(OC)cc3)SC(=O)NC2=O)c1 (stereo not shown) [Example 181, (3-(5-[5-(4-Methoxybenzenesulfonyl)-2,4-dioxothiazolidin-5-yl]pent-1-ynyl}-4-methylphenyl)carbamic Acid Butyl Ester] |

| Structure (SMILES) | IC50 (FPTase [1]) | IC50 (FPTase [2]) |
| --- | --- | --- |
| COc1ccc(S(=O)(=O)C2(CCCC#Cc3cc(NC(=O)Oc4ccc(Cl)cc4)ccc3C)SC(=O)NC2=O)cc1 (stereo not shown) [Example 177, (3-{5-[5-(4-Methoxybenzenesulfonyl)-2,4-dioxothiazolidin-5-yl]pent-1-ynyl}-4-methylphenyl)carbamic Acid 4-Chloro-phenyl Ester] | 11 to 32 nM | 86 to 100 nM |
